Data reported in ChEMBL document CHEMBL1201862, “PubChem BioAssay data set” (2004).
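Assay format: 96-well plates, 48-hour exposure. Abbreviation: GI50, concentration required for 50% inhibition of growth.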 Activity calls are given as the source filed them. Cut-off read from the data, not from the text of the source: active = GI50 up to about 1.1 µM and inactive = higher.

Legend:
Test in all cases: NCI anticancer screen, dose series, 48 h
ACHN = test system: ACHN
EKVX = test system: EKVX
HCT-15 = test system: HCT-15
HL-60 = test system: HL-60
HT-29 = test system: HT-29
KM12 = test system: KM12
MDA-MB-435 = test system: MDA-MB-435
NCI-H226 = test system: NCI-H226
NCI-H23 = test system: NCI-H23
NCI-H460 = test system: NCI-H460
PC-3 = test system: PC-3
RPMI-8226 = test system: RPMI-8226
RXF 393 = test system: RXF 393
SF-295 = test system: SF-295
SK-MEL-2 = test system: SK-MEL-2
SK-OV-3 = test system: SK-OV-3
SN12C = test system: SN12C
UACC-62 = test system: UACC-62
U-251 = test system: U-251
HOP-92 = test system: HOP-92

SMILES | GI50 (ACHN) | GI50 (EKVX) | GI50 (HCT-15) [µM] | GI50 (HL-60) | GI50 (HT-29) | GI50 (KM12) | GI50 (MDA-MB-435) | GI50 (NCI-H226) | GI50 (NCI-H23) | GI50 (NCI-H460) | GI50 (PC-3) | GI50 (RPMI-8226) | GI50 (RXF 393) | GI50 (SF-295) | GI50 (SK-MEL-2) | GI50 (SK-OV-3) | GI50 (SN12C) | GI50 (UACC-62) | GI50 (U-251) | GI50 (HOP-92)
COC(=O)c1c(C(=O)OC)c2ccccn2c1-c1cc(C)cc2c1C(=O)C=CC2=O | 12.6 µM (inactive) | 14.8 µM (inactive) | 10.6 | 2.24 µM (inactive) | 11.2 µM (inactive) | > 10 µM (inactive) | 11.4 µM (inactive) | 13.8 µM (inactive) | 8.09 µM (inactive) | > 10 µM (inactive) | 14 µM (inactive) | 4.11 µM (inactive) | 14.1 µM (inactive) | 12.2 µM (inactive) | 12.5 µM (inactive) | > 10 µM (inactive) | 12.7 µM (inactive) | 11.7 µM (inactive) |  | 
CS(=O)(=O)c1nc(-c2cc3c(c(S(C)(=O)=O)n2)CCC3)cc2c1CCCC2 | 37 µM (inactive) | > 100 µM (inactive) | > 100 | > 100 µM (inactive) | > 100 µM (inactive) | > 100 µM (inactive) | > 100 µM (inactive) | > 100 µM (inactive) | 58.3 µM (inactive) |  | > 100 µM (inactive) | > 100 µM (inactive) | 15.6 µM (inactive) | 29.7 µM (inactive) | 24.6 µM (inactive) | 24.4 µM (inactive) | > 100 µM (inactive) | 14.4 µM (inactive) | 27.1 µM (inactive) | 
O=C(O)c1cnc(-n2[nH]c3c(c2=O)CCCC3)[nH]c1=O | > 100 µM (inactive) | > 100 µM (inactive) | > 100 | > 100 µM (inactive) | > 100 µM (inactive) | > 100 µM (inactive) | > 100 µM (inactive) | > 100 µM (inactive) | > 100 µM (inactive) | > 100 µM (inactive) | > 100 µM (inactive) | > 100 µM (inactive) |  | > 100 µM (inactive) | > 100 µM (inactive) | > 100 µM (inactive) | > 100 µM (inactive) | > 100 µM (inactive) | > 100 µM (inactive) | 83.9 µM (inactive)
O=C(O)CCN1CCN(CCC(=O)O)CCN(CCC(=O)O)CC1 | > 100 µM (inactive) | > 100 µM (inactive) | 91.2 | 25.5 µM (inactive) | 53.6 µM (inactive) | 69.7 µM (inactive) | > 100 µM (inactive) | > 100 µM (inactive) |  | 56.2 µM (inactive) | > 100 µM (inactive) | 83.4 µM (inactive) |  | > 100 µM (inactive) | > 100 µM (inactive) | > 100 µM (inactive) | > 100 µM (inactive) | > 100 µM (inactive) | > 100 µM (inactive) | > 100 µM (inactive)
O=C1Nc2ccccc2/C1=N/Nc1ccccc1[N+](=O)[O-] | 11.6 µM (inactive) | 0.706 µM (active) | 55.5 | > 100 µM (inactive) | > 100 µM (inactive) | 33.8 µM (inactive) | > 100 µM (inactive) | 1.67 µM (inactive) | 16.3 µM (inactive) | 19.9 µM (inactive) | 57 µM (inactive) | 80.7 µM (inactive) | 35.6 µM (inactive) | 56.9 µM (inactive) | > 100 µM (inactive) | 17.1 µM (inactive) | 40.7 µM (inactive) | 63.8 µM (inactive) | 15.5 µM (inactive) | 
CCc1ccc2oc(-c3cc(O)c(-c4nc5cc(CC)ccc5o4)cc3O)nc2c1 | > 100 µM (inactive) | > 100 µM (inactive) | > 100 | > 100 µM (inactive) |  |  | > 100 µM (inactive) | > 100 µM (inactive) | > 100 µM (inactive) | > 100 µM (inactive) | > 100 µM (inactive) | > 100 µM (inactive) |  |  | > 100 µM (inactive) | > 100 µM (inactive) | > 100 µM (inactive) | > 100 µM (inactive) | > 100 µM (inactive) | > 100 µM (inactive)
Cc1cccc(N2CCN(S(=O)(=O)c3ccc(Cl)cc3)C2=N)c1C | > 100 µM (inactive) |  |  |  | > 100 µM (inactive) | > 100 µM (inactive) | > 100 µM (inactive) | > 100 µM (inactive) | 96.4 µM (inactive) |  |  | > 100 µM (inactive) | > 100 µM (inactive) | 77.4 µM (inactive) |  | > 100 µM (inactive) | > 100 µM (inactive) | 38.4 µM (inactive) | > 100 µM (inactive) | 
CCOc1ccc(OP2(=O)NC(=O)C=C(C)N2)cc1 (stereo unspecified) | 90.8 µM (inactive) | > 100 µM (inactive) | > 100 | 37.8 µM (inactive) | > 100 µM (inactive) | > 100 µM (inactive) |  | > 100 µM (inactive) | > 100 µM (inactive) | > 100 µM (inactive) |  | > 100 µM (inactive) | > 100 µM (inactive) | > 100 µM (inactive) | > 100 µM (inactive) | > 100 µM (inactive) | > 100 µM (inactive) | > 100 µM (inactive) | > 100 µM (inactive) | > 100 µM (inactive)
CN1CCOC(C(NC(=O)c2ccccc2)c2ccccc2)C1=O (stereo unspecified) | > 100 µM (inactive) | > 100 µM (inactive) | > 100 | > 100 µM (inactive) | > 100 µM (inactive) | > 100 µM (inactive) |  | > 100 µM (inactive) | > 100 µM (inactive) | > 100 µM (inactive) |  | > 100 µM (inactive) | > 100 µM (inactive) | > 100 µM (inactive) | > 100 µM (inactive) | > 100 µM (inactive) | > 100 µM (inactive) | > 100 µM (inactive) | > 100 µM (inactive) | > 100 µM (inactive)
O=C(NC1CCCCCC1)C1C(=O)N(C2CCCCCC2)C(=O)/C1=N\O (stereo unspecified) | 35.2 µM (inactive) | 36.2 µM (inactive) | 34.4 | 22.5 µM (inactive) | 30.3 µM (inactive) | 37.1 µM (inactive) |  | 35.6 µM (inactive) | 26.5 µM (inactive) | 35.7 µM (inactive) |  | 29.1 µM (inactive) | 23.5 µM (inactive) | 36.6 µM (inactive) | 17.1 µM (inactive) | 38.4 µM (inactive) | 34.7 µM (inactive) | 21 µM (inactive) | 18.6 µM (inactive) | 20.6 µM (inactive)
c1ccc(-c2cc(-c3ccccc3)nc(-c3ccncc3)c2)cc1 | 70.8 µM (inactive) | > 100 µM (inactive) | > 100 | > 100 µM (inactive) |  | 96.4 µM (inactive) | > 100 µM (inactive) | 58.5 µM (inactive) | 91.4 µM (inactive) |  | > 100 µM (inactive) | > 100 µM (inactive) | 44.6 µM (inactive) | 57.1 µM (inactive) | > 100 µM (inactive) | > 100 µM (inactive) | > 100 µM (inactive) | > 100 µM (inactive) | 37.6 µM (inactive) | 
O=C(C[n+]1ccccc1)NNC(=O)/C(=C/c1ccc2c(c1)OCO2)NC(=O)c1ccccc1 | > 100 µM (inactive) | > 100 µM (inactive) | 28.6 | 25.2 µM (inactive) | > 71.8 µM (inactive) | 35.2 µM (inactive) |  | 36.7 µM (inactive) | > 79.1 µM (inactive) | > 57.7 µM (inactive) |  | 24.5 µM (inactive) | 41.7 µM (inactive) | > 79.3 µM (inactive) | > 100 µM (inactive) | > 100 µM (inactive) | > 100 µM (inactive) | > 67.9 µM (inactive) | 28.2 µM (inactive) | > 100 µM (inactive)
O=C1CCC2(c3ccccc3)Nc3cc(Cl)ccc3N12 (stereo unspecified) | 26.9 µM (inactive) | 33.3 µM (inactive) | 35.2 | 20.8 µM (inactive) | 31.7 µM (inactive) | 27.6 µM (inactive) |  | 19.2 µM (inactive) | 22.3 µM (inactive) | 32.7 µM (inactive) |  | 22 µM (inactive) | 28.4 µM (inactive) | 27.4 µM (inactive) | 22.2 µM (inactive) | 43.8 µM (inactive) | 35.1 µM (inactive) | 19 µM (inactive) | 48 µM (inactive) | 13.7 µM (inactive)
COc1ccc(/C=C2\CNC/C(=C\c3ccc(OC)cc3)C2=O)cc1 | > 100 µM (inactive) | > 100 µM (inactive) | 27.4 | 14 µM (inactive) | 27.2 µM (inactive) | 15.9 µM (inactive) |  | > 100 µM (inactive) | 15.8 µM (inactive) | 47.9 µM (inactive) |  | 15.6 µM (inactive) | 21 µM (inactive) | 31.1 µM (inactive) | > 100 µM (inactive) | > 100 µM (inactive) | 37.1 µM (inactive) | 49.4 µM (inactive) | 17.6 µM (inactive) | 56.9 µM (inactive)
CC(=O)O/N=C(Cl)/C(Cl)=N/OC(C)=O | > 100 µM (inactive) | > 100 µM (inactive) | > 100 | > 100 µM (inactive) | > 100 µM (inactive) | > 100 µM (inactive) |  | > 100 µM (inactive) | > 100 µM (inactive) | > 100 µM (inactive) |  | > 100 µM (inactive) | > 100 µM (inactive) | > 100 µM (inactive) | > 100 µM (inactive) | > 100 µM (inactive) | > 100 µM (inactive) | > 100 µM (inactive) | > 100 µM (inactive) | > 100 µM (inactive)
CN1C(=O)c2ccccc2NC(=O)C12O[C@@H]2c1cccc(O)c1 (stereo partly specified) | > 100 µM (inactive) | > 100 µM (inactive) | > 100 | > 100 µM (inactive) | > 100 µM (inactive) | > 100 µM (inactive) | > 100 µM (inactive) |  | > 100 µM (inactive) | > 100 µM (inactive) | > 100 µM (inactive) | > 100 µM (inactive) |  | > 100 µM (inactive) | > 100 µM (inactive) |  | > 100 µM (inactive) | > 100 µM (inactive) | > 100 µM (inactive) | > 100 µM (inactive)
